Source: patent US20020132845A1, “Compositions and methods for the prevention and treatment of tissue ischemia” (priority 2000, published 2002)
“Also recorded” adds a separate entry of the source.

Columns and labels:
[1] = test system: transient focal cerebral ischemia induced by Middle Cerebral Artery Occlusion (MCAO); assay: Animal cerebral infarct assay: two-hour Middle Cerebral Artery Occlusion (MCAO) with reperfusion; format: in vivo, rat; details: for total infarct volume relative to control animals: administered (I.V.) at the time of MCAO; for total ischemic damage relative to control animals: I.V. at the time of MCAO; for reduction of infarct volume: administered at reperfusion; for tissue edema relative to controls / total infarct volume relative to controls / total ischemic damage relative to controls: administered at the time of reperfusion; for edema relative to control animals: at the time of MCAO
Source text: This assay is used to assess the efficacy of the test agents in protecting the brain against necrosis following cerebral ischemia induced in rats. Middle Cerebral Artery Occlusion (MCAO) is a widely used technique to induce transient focal cerebral ischemia in animal models. […] Furthermore, this model accurately represents the involvement of middle cerebral artery (MCA), the most affected vessel in human stroke, and also allows reperfusion as it happens in humans. MCAO by a two-hour occlusion is used to produce the maximum size of cortical infarction without increased mortality at twenty-four hours. Male Wistar rats (Hadan, Ind.) weighing 300-350 g were allowed free access to water and commercial rodent diet under standard laboratory conditions. The room temperature was maintained at 20-23° C. and room illumination was on a 12/12-hour light/dark cycle. The rats were acclimatized to the laboratory environment 5 to 7 days prior to the study. Before surgery, the animals were fasted overnight, but had free access to water. The rats were anesthetized with 3.0% isoflurane (Aerrane, Front Dodge, Iowa) in […] and the animal's neck was shaved and sterilized before the operation. The animals were subjected to two hours MCAO using a modified intraluminal filament technique. A midline incision on the ventral part of the neck was made to expose external and internal carotid arteries. The right external and common carotid arteries were ligated by a suture (silk 5/0, Carlisle Laboratories, Farmers Branch, Tex.) and the right internal artery was temporarily ligated by a microvascular clip (Fine Science Tool Inc., Foster City, Calif.). A small incision was made in the common carotid artery and a nylon filament, its tip rounded by heating, prepared from a fishing line (Stren Fishing Lines, Wilmington, Del.) was inserted from the right common carotid artery. The filament was advanced into the internal carotid artery 18-20 mm from the point of bifurcation of internal and external arteries and a suture was tightly ligated around the filament. Two hours post occlusion, the animals were re-anesthetized to allow reperfusion for the remaining of the experiment by removal of the filament. The anesthetized animal were placed on a stereotaxic apparatus (Harvard Apparatus, S. Natick, Mass.). Anesthesia was maintained by inhalation of 3.0% isoflurane in […] throughout the entire procedure. The scalp was shaved and sterilized prior to surgery. A midline sagittal incision about 3 cm long was made slightly behind the eyes to expose the skull. The skull was scraped with a rounded end spatula to remove periosteal connective tissue. A bur hole was placed 1.5 mm lateral, 1 mm posterior to the left of the bregma to mark the left lateral ventricle. A brain infusion cannula (ALZET CO. Palo Alto, Calif.) was inserted 4 mm deep into the hole. The desired depth was adjusted by attaching spacers to the cannula. The cannula was attached to a 4-cm silastic catheter (Helix Medical Inc.) fixed in place with dental cement (Ketac-cement, Norristown, Pa.). The catheter was either attached to a primed osmotic pump placed subcutaneously between the shoulder blades for permanent infusion or to a syringe for a short infusion. Anesthesia was maintained by inhalation of 3.0% isoflurane in […] throughout the entire procedure. The exterior site of the right femoral vein was shaved and sterilized prior to surgery. A 3 cm incision was made in the right groin region and the femoral vein was isolated. A small incision was made on the femoral vein temporarily ligated with a microvascular clip to introduce and advance a polyethylene (PE-50) catheter (Becton. Dickinson and Co., Sparks, Md.). The catheter was secured in place with suture (silk 5/0, Carlisle Laboratories, Farmers Branch, Tex.). The other end of the catheter was attached to a syringe filled with the heparinized saline for the bolus injection. […]

[2] = test system: congestive heart failure (CHF); assay: Model of congestive heart failure: permanent ligation of the left coronary artery (Example 6); format: in vivo, rat; details: after permanent ligation of the left coronary artery
[3] = Experiments performed in support of the invention: synergy of hesperetin with tocopherols (test not specified)
[4] = oral gavage pre-MCAO, dose not given
[5] = oral gavage pre-MCAO (3 hours), 10 mg/kg
[6] = listed as gamma-tocopherol metabolite enriched composition
[7] = listed as gamma-tocopherol enriched composition
[8] = listed as gamma-tocopherol enriched tocopherol composition

## Cc1c(C)c2c(c(C)c1O)CC[C@@](C)(CCC[C@H](C)CCC[C@H](C)CCCC(C)C)O2 (relative stereo) [alpha-tocopherol, [2R-2R*(4R*,8R*)]-3,4-dihydro-2,5,7,8-tetramethyl-2-(4,8,12-trimethyltridecyl)-2H-1-benzopyran-6-ol, reference compound]
[1]; 6 mg/kg at MCAO (IV)
  reduction of infarct size: 42%
[1]; [4]
  reduction of infarct size: 43%

## Cc1cc(O)cc2c1O[C@](C)(CCC[C@H](C)CCC[C@H](C)CCCC(C)C)CC2 (relative stereo) [delta-tocopherol, [2R-[2R*(4R*,8R*)]]-3,4-dihydro-2,8-dimethyl-2-(4,8,12-trimethyltridecyl)-2H-1-benzo-pyran-6-ol]
[1]; IV, 0.60 mg/kg
  reduction of infarct size: 52%
[1]
  total infarct volume relative to control animals: reduce total infarct size
[1]; [4]
  reduction of infarct size: 48%
[1]; rat, in vivo
  reduction of total infarct volume compared with alpha-tocopherol: more effective

## Cc1cc(O)c(C)c2c1OC(C)(CCCC(C)CCCC(C)CCCC(C)C)CC2 (stereo not drawn) [beta-tocopherol, 3,4-dihydro-2,5,8-trimethyl-2-(4,8,12-trimethyltridecyl)-2H-1-benzopyran-6-ol]
[1]; gavage, three hours pre-MCAO
  total infarct size: reduce total infarct size
[1]; [5]
  reduction of infarct size: 76%

## C[C@H](CS)C(=O)N1CCC[C@H]1C(=O)O [captopril, 1-[(2S)-3-mercapto-2-methylpropionyl]-L-proline]
[2]
  heart weight: reduced heart weight
  left ventricular systolic pressure (LVSP): reduced LVSP

## Cc1c(O)cc2c(c1C)OC(C)(CCC(=O)O)CC2 (stereo not shown) [gamma-CEHC, 6-hydroxy-2,7,8-trimethylchroman-2-propanoic acid]
[1]
  total ischemic damage relative to control animals: significantly reduced
  total infarct volume relative to control animals: reduce total infarct size; also recorded: significantly reduced
  tissue edema relative to controls: reduction
  total infarct volume relative to controls: reduce total infarct size
  total ischemic damage relative to controls: reduction
  edema relative to control animals: reduced tissue edema
[1]; IV at MCAO, drug range 0.1-5 mg/kg
  decrease of neuronal damage: 50-65%
[1]; [6]
  total infarct volume relative to control animals: reduce total infarct
  total infarct volume relative to controls: reduction; also recorded: reduce total infarct
[1]; 10 mg/kg
  reduction of infarct volume: 52%

## Cc1c(O)cc2c(c1C)OC(C)(CCCC(C)CCCC(C)CCCC(C)C)CC2 (stereo not shown) [gamma-tocopherol, 3,4-dihydro-2,7,8-trimethyl-2-(4,8,12-trimethyltridecyl)-2H-1-benzyopyran-6-ol]
[1]; 6 mg/kg at MCAO (IV)
  reduction of infarct size: 82%
[1]
  total ischemic damage relative to control animals: significantly reduced
  tissue edema relative to controls: reduction
  total ischemic damage relative to controls: reduction
  edema relative to control animals: significantly reduced
[1]; IV, 0.6 mg/kg, at MCAO
  reduction of infarct size: 81%
[1]; [7]
  total infarct volume relative to control animals: reduce total infarct size
  total infarct volume relative to controls: reduce total infarct size; also recorded: reduction
[1]; [8]
  total infarct volume relative to control animals: significantly reduced; also recorded: reduce total infarct
  total infarct volume relative to controls: reduce total infarct
[1]; 10 mg/kg
  reduction of infarct volume: 70%
[1]; at the same concentration
  reduction of tissue edema compared with alpha- or delta-tocopherol: more effective
  reduction of total infarct volume compared with alpha- or delta-tocopherol: more effective
[1]; intraperitoneal, 10-20 mg/kg, at MCAO or 3 hours post-reperfusion
  mean reduction of infarct volumes: 20-57%
[1]; oral gavage 3 hours pre-MCAO, 4 mg/kg
  reduction of infarct size / infarct volume: 53%
[1]; [5]
  reduction of infarct size: 77%

## COc1ccc([C@@H]2CC(=O)c3c(O)cc(O)cc3O2)cc1O [hesperetin, (S)-2,3-dihydro-5,7-dihydroxy-2-(3-hydroxy-4-methoxyphenyl)-4H-1benzopyran-4-one]
[3]
  synergy with gamma-tocopherol and delta-tocopherol: act synergistically
